Assays:
[1] = Particle size, polydispersity and zeta potential measurement (DLS, ELS); type: physicochemical; parameters: Zeta / Size: unit not given here
Procedure: 6.6 Particle Size and Zeta Potential Measurement for pDNA, mRNA, siRNA, Cas9 mRNA/sgRNA and Cas9 mRNA/sgRNA/ssDNA Polyplexes as Well as mRNA LNPs
Measurements of size and zeta potential were performed with a Zetasizer Nano ZS (Malvern Instruments, Malvern, Worcestershire, U.K.) in a folded capillary cell (DTS1070) by dynamic and electrophoretic laser-light scattering (DLS, ELS). […] Samples were measured three times with six sub runs per measurement. For measurement of the zeta potential, all samples were diluted to 800 μL with HBG or HEPES (for siRNA polyplexes) directly before measurement. Parameters were identical to the size measurement apart from an equilibration time of 60 sec. Three measurements with 15 sub runs lasting 10 sec each were performed, and zeta potentials were calculated by the Smuchowski equation.

N2a/eGFPLuc cells = test: eGFP knock out efficiency of Cas9 mRNA/sgGFP1 polyplexes by flow cytometry; type: cell-based, murine; details: after 72 h
Procedure: For Cas9 mRNA/sgRNA polyplexes, CleanCap® Cas9 mRNA (5moU) (Trilink Biotechnologies, San Diego, CA, USA) and sgRNA at a fixed weight ratio of 1:1 were mixed and diluted in HBG.
Calculated amounts of aminolipid at indicated N/P (nitrogen/phosphate) ratios (see above) were diluted in separate tubes of HBG. Equal volumes of nucleic acid solution and aminolipid solution were mixed by rapid pipetting and incubated 40 min at RT in a closed Eppendorf reaction tube.
Cas9 mRNA/sgRNA polyplex treatments were performed in triplicate in 96-well plates. N2a eGPFLuc cells were seeded 24 h prior to transfection (5000 cells/well). On the next day, the medium was replaced with 80 μL of fresh pre-warmed medium containing 10% (v/v) FBS. The nanoparticles were prepared as described above, and the volumes of 20, 10, and 5 μL of polyplex solution (2.5 μg/mL Cas9 mRNA and 2.5 μg/mL sgGFP1) were added. 20 μL HBG buffer per well was used as negative control. After 24 h of treatment, the cells were expanded, and the medium was replaced by 100 μL of fresh pre-warmed medium and incubated for additional 48 h. […] Only isolated viable cells were evaluated. The eGFP knock out efficiency was determined as the percentage of eGFP negative cells normalized to the control measurements with HBG buffer-treated cells.

N2a cells = test: Co-delivery efficiency of mRNA/pDNA polyplexes by flow cytometry; type: cell-based, murine; details: N/P 18, 25 and 50 ng combined nucleic acid/well
Procedure: CleanCap® mCherry mRNA (5moU) (Trilink Biotechnologies, San Diego, CA, USA) and pEGFP-N1 pDNA (Clontech Laboratories, Inc. (now Takara Bio USA, Inc., San Jose, CA, USA)) at a fixed weight ratio of 1:1 were mixed and diluted in HBG. Calculated amounts of aminolipid at indicated N/P (nitrogen/phosphate) ratios (see above) were diluted in separate tubes of HBG. Equal volumes of nucleic acid solution and aminolipid solution were mixed by rapid pipetting and incubated 40 min at RT in a closed Eppendorf reaction tube. The final concentration of nucleic acid in the polyplex solution was 5 μg/mL (2.5 μg/mL mCherry mRNA plus 2.5 μg/mL pEGFP-N1 pDNA).
mRNA/pDNA polyplex treatments were performed in triplicate in 96-well plates. N2a cells were seeded 24 h prior to transfection (10,000 cells/well). On the next day, the medium was replaced with 80 μL of fresh pre-warmed medium containing 10% (v/v) FBS. The nanoparticles were prepared as described above, and the volumes of 10 and 5 μL of polyplex solution (2.5 μg/mL mCherry mRNA and 2.5 μg/mL pEGFP-N1 pDNA) were added. 20 μL HBG buffer per well was used as negative control. After 24 h of treatment, cells were collected and re-suspended in PBS solution containing 10% (v/v) FBS (FACS buffer) for flow cytometric evaluation. All samples were analyzed by flow cytometry using a CytoFLEX S Flow Cytometer (Beckman Coulter, Brea, CA, USA). Shortly before the measurement, 1 ng/μL 4′, 6-diamidino-2-phenylindole (DAPI) was added and used to discriminate between viable and dead cells. The cellular fluorescence was assayed by excitation of DAPI at 405 nm and detection of emission at 450 nm. Only isolated viable cells were evaluated. Gates were set compared to control measurements with HBG buffer-treated cells. […] Flow cytometry data were analyzed using FlowJo™ v10.8 flow cytometric analysis software by FlowJo, LLC (Becton, Dickinson and Company, U.S.). The cellular fluorescence expression was assayed by excitation at 561 nm and 488 nm, the detection of emission at 610 nm and 530 nm for mCherry and eGFP, respectively.

[2] = test system: N2a/eGFPLuc, DU145/eGFPLuc, and KB/eGFPLuc; test: Gene silencing activity of siRNA polyplexes in three cell lines; type: cell-based, murine, human; details: N/P 18, 15.6 ng siRNA/well, 48 h
[3] = test system: N2a/eGFPLuc, KB/eGFPLuc, and CT26/eGFPLuc; test: Gene silencing activity of siRNA LNPs in three cell lines; type: cell-based; details: N/P 9, 63 and 31 ng siRNA/well, 48 h
Huh7 cells [4] = test: Luciferase gene expression of mRNA LNPs in Huh7 cells; type: cell-based, human; details: 62.5 ng mRNA/well, N/P 9
[5] = test system: N2a tumor-bearing A/J mice; test: Ex vivo luciferase expression after intravenous injection of mRNA polyplexes; type: in vivo; details: tumors, lungs, liver, spleen
Procedure: Neuro2a cells (10^6 cells/150 μL PBS) were inoculated subcutaneously into the left flank of 6-week-old female A/J mice (Envigo RMS GmbH, Dusseldorf, Germany). Mice were randomly divided into groups of three (in the case of mRNA LNPs) or five (in the case of mRNA polyplexes) and were housed in isolated ventilated cages under specific pathogen free conditions with a 12 h day/night interval, and food and water ad libitum. Weight and general well-being were monitored continuously. Tumor size was measured with a caliper and determined by formula: a*b^2/2 (a=longest side of the tumor; b=widest side vertical to a). When tumors reached a size of 250-500 mm3, the experiments were performed by intravenous tail vein injection of polyplexes or LNPs formed as described in 6.1 and 6.3, containing 1 μg, 3 μg or 10 μg of stabilized firefly luciferase encoding mRNA (CleanCap™ FLuc mRNA (5moU); Trilink Biotechnologies, San Diego, CA, USA) in 150 μL HBG. Polyplexes containing 10 μg mRNA were dialyzed for 1 h at 4° C. against HBG (dialysis membrane MWCO 100-500 Da; Spectra/Por®, Carl Roth, Karlsruhe, Germany) prior to application to remove small amounts of ethanol. […] The luciferase gene expression was determined as described above and is presented as relative light units (RLU) per gram (g) tumor/organ.
To evaluate luciferase mRNA delivery by an ex vivo luciferase gene expression assay, organ and tumor tissues were homogenized in Luciferase Cell Culture Lysis Reagent 1× (Promega, Mannheim, Germany), supplemented with 1% (v/v) protease and phosphatase inhibitor cocktail (Sigma-Aldrich, Munich, Germany) using a tissue and cell homogenizer (FastPrep®-24, MP Biomedicals, USA). […] Luciferase activity in 25 μL supernatant was measured in a Centro LB 960 plate reader luminometer (Berthold Technologies, Bad Wildbad, Germany) for 10 sec after addition of 100 μL/well of a LAR buffer solution (20 mM glycylglycine, 1.0 mM MgCl2, 0.10 mM EDTA, 3.3 mM DTT, 0.55 mM ATP, and 0.27 mM coenzyme A; pH 8-8.5) supplemented with 5% (v/v) of a mixture of 10 mM luciferin and 29 mM glycylglycine.

Huh7 cells [6] = test: Luciferase expression assay of pDNA polyplexes in Huh7 cells; type: cell-based, human
[7] = test system: KB, U87, and HCT116 cells; details: 10 ng poly(I:C) per well, 48 h, especially in KB cells
Procedure: The cytotoxic effect of double-stranded RNA (poly(I:C)) was evaluated in cancer cells using LAF carriers 1611, 1719, and 1752. The toxicity induced by poly(I:C) and carriers were differentiated by using non-toxic single-stranded poly(I). LPEI and the LAF-Stp carriers were transfected in medium supplemented with 10% (v/v) FBS. In the case of lipofectamine, particles were prepared and transfected according to the manufacturer's protocol (particle formation as well as transfection in serum-free medium; ThermoFisher). At 4 h after lipofectamine transfection, medium was replaced with fresh medium supplemented with 10% (v/v) FBS followed by incubation of 48 h in total. The percentage of cell survival was calculated relative to the HBG buffer-treated control cells (n=3, mean+SD).

[8] = mRNA polyplexes, 12.5 μg/mL CleanCap FLuc mRNA (5moU), N/P 12 (1611, 1719, 1722, 1732), N/P 24 (1614), N/P 18 (1621, 1747)
[9] = mRNA LNPs, 12.5 μg/mL CleanCap FLuc mRNA (5moU), N/P 9, molar ratios see Table A
[10] = siRNA LNPs, siCtrl 25 μg/mL, N/P 9
[11] = Cas9 mRNA/sgDMDex23 polyplexes, N/P 24, combined nucleic acid 12.5 μg/mL
[12] = PEGylated pDNA polyplexes 25% PEG, 10 μg/mL pCMVLuc
[13] = Targeted pDNA polyplexes 12.5% PEG 2k, 12.5% PEG-GE11, 10 μg/mL pCMVLuc
[14] = Unmodified pDNA polyplexes 0%, 10 μg/mL pCMVLuc
[15] = dialyzed mRNA polyplexes for in vivo application, 66.7 μg/mL mRNA, 1611 N/P 18, 1719 N/P 12
[16] = pDNA polyplexes, N/P 12, 10 μg/mL pCMVLuc
[17] = poly(I) polyplexes, 12.5 μg/mL, 1611 N/P 18, 1719 N/P 12, 1752 N/P 24
[18] = poly(I:C) polyplexes, 12.5 μg/mL, 1611 N/P 18, 1719 N/P 12, 1752 N/P 24

K(8Oc)2-Stp2-K[K(8Oc)2] [compound 1732]
Pdl [1, 8]: 0.304 | Z-average [1, 8]: 98.2 nm | Zeta potential [1, 8]: 26.2 mV | eGFP knock-out efficiency of Cas9 mRNA/sgRNA polyplexes (N2a/eGFPLuc cells): good knock-out efficiency

K(12Oc)2-Stp-K[K(12Oc)2] [compound 1716]
Pdl [1, 9]: 0.150 | Z-average [1, 9]: 200.9 nm | Zeta potential [1, 9]: −0.25 mV | mCherry mRNA/eGFP pDNA co-expression (co-delivery efficiency) (N2a cells): most potent structures | gene silencing efficiency of siRNA polyplexes in three cell lines [2]: great performance in all three tested cell lines

K[K(10Oc)2]2-Stp [compound 1762]
Pdl [1, 10]: 0.104 | Z-average [1, 10]: 244.3 nm | Zeta potential [1, 10]: −3.2 mV | gene silencing (eGFP silencing) of siRNA LNPs [3]: approximately the same potential for eGFP silencing

K[K(12He)2]2-Stp [compound 1754]
Pdl [1, 9]: 0.187 | Z-average [1, 9]: 171.0 nm | Zeta potential [1, 9]: 1.11 mV | Pdl [1, 10]: 0.144 | Z-average [1, 10]: 173.0 nm | Zeta potential [1, 10]: 2.2 mV | RLU values of mRNA LNPs relative to DLin-MC3-DMA (Huh7 cells [4]): 10 fold

K[K(14He)2]2-Stp [compound 1755]
Pdl [1, 9]: 0.220 | Z-average [1, 9]: 149.6 nm | Zeta potential [1, 9]: 2.26 mV | Pdl [1, 10]: 0.287 | Z-average [1, 10]: 160.6 nm | Zeta potential [1, 10]: 3.4 mV | luciferase expression of mRNA LNPs relative to SM-102 (Huh7 cells [4]): 2 fold

K[K(16Bu)2]2-Stp [compound 1753]
Pdl [1, 9]: 0.227 | Z-average [1, 9]: 142.1 nm | Zeta potential [1, 9]: 3.39 mV | Pdl [1, 10]: 0.292 | Z-average [1, 10]: 195.1 nm | Zeta potential [1, 10]: 2.6 mV | gene silencing (eGFP silencing) of siRNA LNPs [3]: approximately the same potential for eGFP silencing

[K(12Oc)]2-Stp2-[K(12Oc)]2 [compound 1719]
Pdl [1, 11]: 0.268 | Z-average [1, 11]: 80.8 nm | Zeta potential [1, 11]: 42.6 mV | Pdl [1, 12]: 0.13 | Size [1, 12]: 76 | Zeta [1, 12]: 10.5 | Pdl [1, 13]: 0.13 | Size [1, 13]: 88 | Zeta [1, 13]: 10.5 | Pdl [1, 14]: 0.09 | Size [1, 14]: 77 | Zeta [1, 14]: 29.5 | Pdl [1, 15]: 0.176 ± 0.016 | Zeta potential [1, 15]: 30.7 ± 1.7 mV | Pdl [1, 8]: 0.225 | Z-average [1, 8]: 75.0 nm | Zeta potential [1, 8]: 33.0 mV | Pdl [1, 16]: 0.220 ± 0.001 | Z-average [1, 16]: 110.4 ± 1.89 nm | Zeta potential [1, 16]: 13.0 ± 0.5 mV | Pdl [1, 17]: 0.32 ± 0.08 | Z-average [1, 17]: 86.8 ± 11.4 nm | Zeta potential [1, 17]: 23.2 ± 0.4 mV | Pdl [1, 18]: 0.25 ± 0.05 | Z-average [1, 18]: 95.9 ± 2.1 nm | Zeta potential [1, 18]: 13.8 ± 2.9 mV | in vivo luciferase expression of mRNA polyplexes [5]: great in vivo performance | RLU values of targeted polyplexes in comparison to shielded polyplexes (Huh7 cells [6]; N/P 12, pDNA dose 50 ng/well): 6.5 fold | RLU values of targeted polyplexes in comparison to shielded polyplexes (Huh7 cells [6]; N/P 12, pDNA dose 100 ng/well): 4.4 fold | cell viability after poly(I:C) polyplex treatment [7]: significant decrease in the cell viability

From patent US20260159854A1, “NOVEL CARRIERS FOR NUCLEIC ACID AND/OR PROTEIN DELIVERY” (LUDWIG-MAXIMILIANS-UNIVERSITÄT MÜNCHEN, priority 2022, published 2026)
